# Results published in patent US8847003B2, “Role of proteoglycans in drug dependence” (priority 2002, dated 2014).
# Ends that are not written are not given here.
# Experiments:
# [1] = system: mouse hypothalamic protein extracts; assay: Cleavage of internally-quenched fluorogenic peptides by hypothalamic protein extracts; assay type: biochemical; settings: 37° C., 50 mM Tris-HCl buffer, pH 7.0; for proteolytic cleavage of the fluorogenic peptide by hypothalamic extracts: peptide as substrate
# Excerpt: According to one of the embodiments of the invention, syndecan-3 sheddases are identified by an assay for syndecan-3 cleavage, which requires knowledge of the cleavage site. The cleavage site for syndecan-3 cleavage is not presently completely identified. However, according to embodiments of the invention, we designed a battery of overlapping internally-quenched fluorogenic peptides spanning the juxta-membrane region of the mouse syndecan-3 (Amino Acid residues 355-388) labeled at their ends with Abz (ortho-aminobenzoyl) and EDDnp (ethylenediaminedinitrophenyl) for fluorescent detection of proteolytic cleavage (FIG. 7A). The peptides were individually incubated with mouse hypothalamic protein extracts at 37° C. in 50 mM Tris-HCl buffer, pH 7.0. Fluorescence was continuously measured at λex=320 nm and λem=420 nm. […] Proteolytic activity is expressed as reaction rate (activity/μl/min). […] Thus, this peptide or a peptide overlapping this peptide can be used in an assay to identify the sheddase of syndecan-3 and/or drugs that prevent or facilitate shedding (inhibitors, activators, mimics antimimics).
# While the invention has been described in conjunction with the detailed description, the foregoing description is intended to illustrate and not limit the scope of the invention, which is defined by the scope of the appended claims. Other aspects, advantages, and modifications are within the scope of the following claims.
# [2] = Rotarod performance; assay type: in vivo, mice; settings: prinomastat at the dose used (20 mg/Kg IP); data not shown
# [3] = system: syndecan-mutant mice; assay: Cue-induced reinstatement of cocaine-seeking behavior; assay type: in vivo; settings: for reinstatement of cocaine seeking behavior in mice (figure legend): FIG. 6 legend
# Excerpt: . Separate groups of mice of the 3 syndecan mutant genotypes (syndecan-3 knockout, whole syndecan-1 transgenic, and syndecan-1 ectodomain transgenic mice) were trained to self-administer cocaine by intravenous injection as described above. Mice were subjected to 7 sessions of 1-hour access to self-administration followed by 8 sessions of 6-hour access as described above.
# Mice were allowed one 1-hour extinction session/day for a minimum of 14 days, until an extinction criterion was reached. The extinction criterion was designated as a group mean of less than 10 responses/1 hour for two consecutive sessions on the active lever.
# The conditions during testing were identical to those during the extinction phase, with the exception that lever presses led to presentations of the cocaine cue-light for 5 seconds. The 1-hour test session for cue-induced reinstatement were conducted on the day following the last extinction session. A one way ANOVA with one between factor (genotype, three) were used to measure any differential effects of the cocaine-related cue induced reinstatement.
# In still another example, the following experiment was performed showing that a wide spectrum of MMP inhibitors block cue-induced reinstatement of cocaine seeking behavior. Lever-pressing behavior in cocaine self-administering syndecan-mutant mice was extinguished in the absence of the 20 sec cue light (CS) that was paired with cocaine infusions during the training phase as shown in Example 4. […] In FIG. 6B, After a few days, animals were again presented with the cue light non-contingently and on the third day of reinstatement they were administered IP the systemically active broad-spectrum MMP inhibitor prinomastat (20 mg/Kg) 30-60 min before the reinstatement sessions starting on the third session.
# [4] = system: syndecan-3; assay: Western blot of uncleaved syndecan-3 after ICV GM-6001 in mice; assay type: in vivo, C57BL/6J mice; settings: for uncleaved syndecan-3 / shedding of syndecan-3 (western blot, syndecan-3 C-terminal domain antibody): ICV at various doses, sacrificed 3 hours after administration
# Excerpt: FIG. 5B. Quantification of western blot shown in (A).
compound,measurement,setting,value
c1cnc2c(c1)ccc1cccnc12 [ortho-phenanthroline],inhibition of hydrolysis of peptide 1 (Seq Id No. 3) by hypothalamic extract,"[1]; fluorescence λex=320 nm, λem=420 nm",completely inhibited
"CC1(C)SCCN(S(=O)(=O)c2ccc(Oc3ccncc3)cc2)[C@H]1C(=O)NO [prinomastat, Prinomastat]",performance on the rotarod,[2],did not affect
same,reinstatement of cocaine seeking behavior in mice (figure legend),[3],block reinstatement of cocaine seeking behavior
same,responding during reinstatement,"[3]; prinomastat 20 mg/Kg IP 30-60 min before sessions, syndecan-1 ectodomain Tg mice, p<0.01 from last day before treatment",significantly declined
Ilomastat [GM6001],"uncleaved syndecan-3 / shedding of syndecan-3 (western blot, syndecan-3 C-terminal domain antibody)",[4],reduces shedding of syndecan-3
same,"uncleaved syndecan-3 / shedding of syndecan-3 (western blot, syndecan-3 C-terminal domain antibody)",[4]; listed as GM-6001,accumulation of uncleaved syndecan-3
same,increase of uncleaved syndecan-3 (quantification of western blot),"[4]; ICV, highest doses tested (0.4 μg, 2.0 μg), p<0.01 from vehicle-injected control",about 3 fold
same,reinstatement of cocaine seeking behavior in mice (figure legend),[3],block reinstatement of cocaine seeking behavior
same,"responding during reinstatement, last day before treatment vs last day of treatment","[3]; GM6001 0.4 μg ICV 30-60 min before sessions, syndecan-3 KO mice",not significantly different
same,cocaine seeking behavior (responding) during reinstatement,"[3]; GM6001 0.4 μg ICV 30-60 min before sessions, whole syndecan-1 Tg mice, p<0.01 from last day before treatment",greatly reduced
Mca-PLQAV-Dpa-RSSSR-NH2 [Compound E003],proteolytic cleavage of the fluorogenic peptide by hypothalamic extracts,[1],observed activity
"RPGLGLHDNA (not fully specified; also: fluorophore/quencher pair (positions not given here); listed as Mus musculus) [Peptide 1, internally-quenched fluorogenic peptide from mouse syndecan-3 juxta-membrane region]",proteolytic cleavage of the fluorogenic peptide by hypothalamic extracts,[1],efficiently hydrolized
